Laboratory results taken from patent US20260169011A1, “METHODS AND COMPOSITIONS FOR PROVIDING CUSTOMIZED NUTRITIONAL SUPPLEMENTS” (Vibrant Holdings LLC, priority 2023, published 2026).
Read-outs that look alike come from different tables or passages of the source.

Experiments:
[1] = Vibrant Absorption Factor (VAF): difference of post- and pre-supplementation nutrient values divided by ATB dosage
[2] = NutriPro test: serum, RBC and WBC nutrient values before and after ATB / customized blend; type: in vivo, human; conditions: for Actual Nutrient Value (ANV): before customized blend; for concentration at 3 months: read-out: Follow-up Nutrient Level; for Pre-test biomarker level: before ATB
Description: The method for providing a nutritional supplement for a subject as disclosed herein is based on a comprehensive panel that assesses intracellular and extracellular levels of at least or up to 41 nutrients. […] Blood analysis using the method disclosed herein tests for nutrient levels in serum, red blood cells (RBCs), and white blood cells (WBCs). Additional genetic testing can assess patients' predispositions toward nutrient deficiencies. Based on the blood and genetic analysis results, a subsequent supplementation diet comprising supplements and food sources can be designed and implemented. The subject can be a human subject.
In some embodiments, the detection method is mass spectrometry.
The ‘NutriPro’ test is used to assess serum (extracellular), RBC, and WBC (intracellular) nutrient values along with genetic testing for any predispositions with could be affecting nutrient values in the body. If required, additional tests such as the gut zoomer, cardiovascular health, thyroid test, kidney function test, liver function test, etc, are carried out. FIG. 1 provides a schematic diagram of the process of the NutriPro test from the individual subject to the creation of customized nutritional blends.
The ATB is given to the individual for nutritional supplementation, and blood testing for nutrients in serum, RBC, and WBC is carried out after 3 or 6 months.
The assessed change is called the VAF.
After testing, the individual takes the ATB or the customized blend for the amount of time indicated.

[3] = cited from earlier work
[4] = person one, level: Questionnaire
[5] = human, in vivo, Level: Questionnaire, person, after customized blend
[6] = person one, serum, after customized blend
[7] = person three, serum, after customized blend
[8] = person two, serum, after customized blend

N=C(N)NCCC[C@H](N)C(=O)O [Arginine]
VAF [1, 4]: 2.7
Actual Nutrient Value (ANV) ([2]; Level: Questionnaire, person): 84 nmol/mL
concentration at 3 months [2, 5]: 89.5 µM
Follow-up Biomarker level ([2]; male, human, in vivo): 234 nmol/mL
Post-test biomarker level ([2]; male, human, in vivo): 162 nmol/mL
Pre-test biomarker level [2, 4]: 135 nmol/mL

[44Ca] [Calcium, Ca 44]
UTL ([3]; upper tolerable limit): 2,500 mg/day

C[N+](C)(C)CC(O)CC(=O)[O-] (centres unmarked) [Carnitine]
UTL ([3]; Table 18, person one): 2000 mg/day
UTL ([3]; Table 20, person three): 2000 mg/day
VAF ([1]; person one, serum): 1.08
Post-test biomarker level ([2]; person one, serum, after ATB): 14.9 nmol/mL
Follow-up Biomarker level [2, 6]: 42.5 nmol/mL
Pre-test biomarker level ([2]; person one, serum): 9.5 nmol/mL
Follow-up Nutrient Level ([2]; person three, level: Questionnaire, after customized blend): 43.2 nmol/mL
Actual Nutrient Value (ANV) ([2]; person three, level: Questionnaire): 24 nmol/mL

C[N+](C)(C)CCO [Choline]
UTL ([3]; upper tolerable limit): 3,500 mg/day

[Cr] [Chromium]
Follow-up Nutrient Level [2, 7]: 0.277 ng/mL
Actual Nutrient Value (ANV) ([2]; person three, serum): 0.133 ng/mL

NC(=O)NCCC[C@H](N)C(=O)O [Citrulline]
VAF ([1]; person two, serum): 0.76
Actual Nutrient Value (ANV) ([2]; Level: Questionnaire, person): 19.2 nmol/mL
concentration at 3 months [2, 5]: 24.9 µM
Post-test biomarker level ([2]; person two, serum, after ATB): 16.7 nmol/mL
Follow-up Biomarker level [2, 8]: 43.4 nmol/mL
Pre-test biomarker level ([2]; person two, serum): 9.1 nmol/mL

COC1=C(OC)C(=O)C(C/C=C(\C)CC/C=C(\C)CC/C=C(\C)CC/C=C(\C)CC/C=C(\C)CC/C=C(\C)CC/C=C(\C)CC/C=C(\C)CC/C=C(\C)CCC=C(C)C)=C(C)C1=O [Coenzyme 10]
UTL ([3]; Table 18, person one): 1,200 mg/day
UTL ([3]; Table 19, person two): 1,200 mg/day
VAF ([1]; person one, serum): 0.024
VAF ([1]; person two, serum): 0.22
Post-test biomarker level ([2]; person one, serum, after ATB): 320 ng/mL
Follow-up Biomarker level [2, 6]: 1800 ng/mL
Pre-test biomarker level ([2]; person one, serum): 200 ng/mL
Post-test biomarker level ([2]; person two, serum, after ATB): 1200 ng/mL
Follow-up Biomarker level [2, 8]: 1880 ng/mL
Pre-test biomarker level ([2]; person two, serum): 100 ng/mL

COC1=C(OC)C(=O)C(C/C=C(\C)CC/C=C(\C)CC/C=C(\C)CC/C=C(\C)CC/C=C(\C)CC/C=C(\C)CC/C=C(\C)CC/C=C(\C)CC/C=C(\C)CCC=C(C)C)=C(C)C1=O [Coenzyme Q10]
UTL ([3]; Table 20, person three): 1,200 mg/day
Follow-up Nutrient Level [2, 7]: 1990 ng/mL
Actual Nutrient Value (ANV) ([2]; person three, serum): 100 ng/mL

[Cu] [Copper, Cu 63]
UTL ([3]; upper tolerable limit): 10 mg/day

CC/C=C\C/C=C\C/C=C\C/C=C\C/C=C\CCCCCC(=O)O [DPA, docosapentaenoic acid]
Follow-up Nutrient Level ([2]; person three, cells, after customized blend, unit not given): 1.2
Actual Nutrient Value (ANV) ([2]; person three, cells, unit not given): 0.46

C[N+](C)(C)C[C@H](O)CC(=O)[O-] [Free Carnitine]
UTL ([3]; upper tolerable limit): 2000 mg/day

[Fe] [Iron, Fe 56]
UTL ([3]; upper tolerable limit): 45 mg/day

CC[C@H](C)[C@H](N)C(=O)O [Isoleucine]
VAF ([1]; person two, serum): 8.514
Follow-up Nutrient Level [2, 7]: 144 nmol/mL
Actual Nutrient Value (ANV) ([2]; person three, serum): 26.2 nmol/mL
Post-test biomarker level ([2]; person two, serum, after ATB): 44 nmol/mL
Follow-up Biomarker level [2, 8]: 149 nmol/mL
Pre-test biomarker level ([2]; person two, serum): 14.2 nmol/mL

N=C(N)NCCC[C@H](N)C(=O)O [L-Arginine]
VAF ([1]; person two, serum): 0.9
Post-test biomarker level ([2]; female, human, in vivo): 67 nmol/mL
Follow-up Biomarker level [2, 8]: 232 nmol/mL
Pre-test biomarker level ([2]; person two, serum): 58 nmol/mL

CC(C)C[C@H](N)C(=O)O [L-Leucine]
VAF ([1]; person one, serum): 5.429
Post-test biomarker level ([2]; person one, serum, after ATB): 101 nmol/m
Follow-up Biomarker level [2, 6]: 222 nmol/m
Pre-test biomarker level ([2]; person one, serum): 82 nmol/m

CC(C)[C@H](N)C(=O)O [L-Valine]
VAF ([1]; person one, serum): 8.75
Post-test biomarker level ([2]; person one, serum, after ATB): 4.7e+10 nmol/mL
Follow-up Biomarker level [2, 6]: 322 nmol/mL
Pre-test biomarker level ([2]; person one, serum): 12 nmol/mL

CC(C)C[C@H](N)C(=O)O [Leucine]
Follow-up Nutrient Level [2, 7]: 225 nmol/m
Actual Nutrient Value (ANV) ([2]; person three, serum): 85 nmol/m

[24Mg] [Magnesium, Mg 24]
UTL ([3]; upper tolerable limit): 350 mg/day

[Mg] [Magnesium]
UTL ([3]; Table 18, person one): 350 mg/day
VAF ([1]; person one, serum): 0.012
Post-test biomarker level ([2]; person one, serum, after ATB): 17000 ng/mL
Follow-up Biomarker level [2, 6]: 25200 ng/mL
Pre-test biomarker level ([2]; person one, serum): 5000 ng/mL

[Mn] [Manganese, Mn 55]
UTL ([3]; upper tolerable limit): 11 mg/day

[Mn+2] [Manganese]
UTL ([3]; Table 19, person two): 11 mg/day
VAF ([1]; person two, cells): 7.684
VAF ([1]; person two, serum): 0.2316
Post-test biomarker level ([2]; person two, cells, after ATB): 7.8 pg/MM WBC
Follow-up Biomarker level ([2]; person two, cells, after customized blend): 67.5 pg/MM WBC
Pre-test biomarker level ([2]; person two, cells): 0.5 pg/MM WBC
Post-test biomarker level ([2]; person two, serum, after ATB): 0.62 ng/mL
Follow-up Biomarker level [2, 8]: 2.1 ng/mL
Pre-test biomarker level ([2]; person two, serum): 0.4 ng/mL

O[C@H]1[C@H](O)[C@@H](O)[C@H](O)[C@@H](O)[C@H]1O [Myo-Inositol]
VAF ([1]; person two, serum): 0.55
Post-test biomarker level ([2]; female, human, in vivo): 12.9 nmol/mL
Follow-up Biomarker level [2, 8]: 47.5 nmol/mL
Pre-test biomarker level ([2]; person two, serum): 7.4 nmol/mL

[76Se] [Selenium, Se 76]
UTL ([3]; upper tolerable limit): 0.4 mg/day

N[C@@H](CO)C(=O)O [Serine]
UTL ([3]; Table 20, person three): 12000 mg/day
Follow-up Nutrient Level [2, 7]: 131 nmol/mL
Actual Nutrient Value (ANV) ([2]; person three, serum): 62 nmol/mL

[Na] [Sodium]
UTL ([3]; upper tolerable limit): 2,300 mg/day

CC(C)[C@H](N)C(=O)O [Valine]
Follow-up Nutrient Level [2, 7]: 332 nmol/mL
Actual Nutrient Value (ANV) ([2]; person three, serum): 26 nmol/mL

CC1=C(/C=C/C(C)=C/C=C/C(C)=C/CO)C(C)(C)CCC1 [Vitamin A (Retinol)]
UTL ([3]; upper tolerable limit): 10,000 IU/day

Cc1cc2nc3c(=O)[nH]c(=O)nc-3n(C[C@H](O)[C@H](O)[C@H](O)CO)c2cc1C [Vitamin B2]
Follow-up Nutrient Level [2, 7]: 231 ng/mL
Actual Nutrient Value (ANV) ([2]; person three, serum): 5.5 ng/mL

O=C(O)c1cccnc1 [Vitamin B3]
UTL ([3]; Table 18, person one): 35 mg/day
VAF ([1]; person one, serum): 0.7
Post-test biomarker level ([2]; person one, serum, after ATB): 3.9 ng/mL
Follow-up Biomarker level [2, 6]: 70.1 ng/mL
Pre-test biomarker level ([2]; person one, serum): 1.1 ng/mL

O=C1O[C@H]([C@@H](O)CO)C(O)=C1O [Vitamin C (L-Ascorbic acid)]
UTL ([3]; upper tolerable limit): 2000 mg/day

Cc1c(C)c2c(c(C)c1O)CC[C@@](C)(CCC[C@H](C)CCC[C@H](C)CCCC(C)C)O2 [Vitamin E (alpha-tocopherol)]
UTL ([3]; upper tolerable limit): 1,100 IU/day

CC1=C(C/C=C(\C)CCC[C@H](C)CCC[C@H](C)CCCC(C)C)C(=O)c2ccccc2C1=O [Vitamin K1]
VAF ([1]; person two, serum): 0.081
Follow-up Nutrient Level [2, 7]: 12.3 ng/mL
Actual Nutrient Value (ANV) ([2]; person three, serum): 0.07 ng/mL
Post-test biomarker level ([2]; person two, serum, after ATB): 1.7 ng/mL
Follow-up Biomarker level [2, 8]: 12.4 ng/mL
Pre-test biomarker level ([2]; person two, serum): 0.08 ng/mL

[Zn] [Zinc, Zn 67]
UTL ([3]; upper tolerable limit): 40 mg/day

Vitamin B12
VAF ([1]; person one, cells): 3.75
VAF ([1]; person one, serum): 250
VAF ([1]; person two, serum): 132.5
Post-test biomarker level ([2]; person one, cells, after ATB, unit not given): 1.7
Follow-up Biomarker level ([2]; person one, cells, after customized blend, unit not given): 10.3
Pre-test biomarker level ([2]; person one, cells, unit not given): 0.2
Post-test biomarker level ([2]; person one, serum, after ATB): 0.205 ng/mL
Follow-up Biomarker level [2, 6]: 1.17 ng/mL
Pre-test biomarker level ([2]; person one, serum): 0.105 ng/mL
Post-test biomarker level ([2]; person two, serum, after ATB): 0.147 ng/mL
Follow-up Biomarker level [2, 8]: 1.122 ng/mL
Pre-test biomarker level ([2]; person two, serum): 0.094 ng/mL

Vitamin K2
VAF ([1]; person one, serum): 0.0007
Post-test biomarker level ([2]; person one, serum, after ATB): 0.017 ng/mL
Follow-up Biomarker level [2, 6]: 0.1017 ng/mL
Pre-test biomarker level ([2]; person one, serum): 0.01 ng/mL
